The results in this text go back to patent US9856279B2 (AGIOS PHARMACEUTICALS, INC, priority 2011, dated 2018).

One test addresses IDH1 R132H (Homo sapiens, UniProt O75874, R132H). Briefly: Assay for IDH1 R132H inhibitors (NADPH/aKG, resazurin detection). The class given is biochemical. The following applies: enzyme assay of Example 12; read-out: IDH1R132H IC50. An outline of the steps:
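Compound added to substrate mix (8 uM NADPH, 2 mM aKG), then enzyme mix (0.2 μg/ml IDH1 R132H); 50 min RT in 20 mM Tris pH 7.5, 150 mM NaCl, 10 mM MgCl2, 0.03% BSA. Resazurin detection mix (30 μM) 5 min RT; resorufin fluorescence Ex544/Em590.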

In another test the test system is HT1080 cells. Nature of the test: Cellular assay for IDH1m inhibitors: inhibition of 2-HG production (LC-MS, 48 hours) in HT1080 cells. It counts as cell-based. The note with it: Homo sapiens, HT-1080; inhibition of 2-HG production, HT1080 cells; read-out: HT1080 IC50. An outline of the steps:
(§1)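 Each cell line is plated at 5000 cells/well in DMEM with 10% FBS and left overnight at 37 °C. Test compounds are then added for 48 h, after which 2-HG in the medium is determined by LC-MS; IC50 reflects 50% reduction compared with control.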

For a further test, the system named is U87MG cells. Nature of the test: Cellular assay for IDH1m inhibitors: inhibition of 2-HG production (LC-MS, 48 hours) in U87MG cells. It counts as cell-based. The note with it: Homo sapiens, U-87 MG, inhibition of 2-HG production, U87R132H cells; read-out: U87R132H IC50. The procedure, abridged:
as §1

IDH1 R132H, sequence (O75874 whole entry R132H): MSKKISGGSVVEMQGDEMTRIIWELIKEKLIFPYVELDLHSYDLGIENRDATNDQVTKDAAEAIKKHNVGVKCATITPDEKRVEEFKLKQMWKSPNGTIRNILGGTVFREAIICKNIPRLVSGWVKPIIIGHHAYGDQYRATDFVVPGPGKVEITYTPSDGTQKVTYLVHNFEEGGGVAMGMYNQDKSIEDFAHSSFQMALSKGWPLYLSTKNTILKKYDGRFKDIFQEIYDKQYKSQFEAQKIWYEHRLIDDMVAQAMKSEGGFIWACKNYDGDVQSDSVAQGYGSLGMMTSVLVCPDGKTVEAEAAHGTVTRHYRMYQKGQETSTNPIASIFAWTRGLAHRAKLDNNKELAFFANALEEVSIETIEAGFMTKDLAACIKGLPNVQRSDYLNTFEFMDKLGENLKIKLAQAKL

Usually IC50 stands for the point on the concentration scale where inhibition reaches its midpoint. `CCO[C@@H]1C[C@@H]1C(=O)N1CCN(c2nc(C3CC3)c(-c3cccc4cnccc34)cc2C#N)C[C@H]1C1CC1` [Compound 526, 6-cyclopropyl-2-((R)-3-cyclopropyl-4-((1S,2R)-2-ethoxycyclopropanecarbonyl)piperazin-1-yl)-5-(isoquinolin-5-yl)nicotinonitrile]: the IC50 was 500 to 1000 nM on IDH1 R132H, under 500 nM with HT1080 cells and under 500 nM with U87MG cells.
As for `C=Cc1cc(-c2cc(C#N)c(N3CCN(C(=O)CCO)[C@H](C4CC4)C3)nc2C2CC2)ccn1` [Compound 527], the IC50 at IDH1 R132H, in the test with HT1080 cells and in the test on U87MG cells was under 500 nM in each case.
For `N#Cc1cc(Nc2ccnc3ccccc23)c(C2CC2)nc1N1CCN(C(=O)C2CC2)[C@H](C2CC2)C1` [Compound 528, (R)-2-(4-(cyclopropanecarbonyl)-3-cyclopropylpiperazin-1-yl)-6-cyclopropyl-5-(quinolin-4-ylamino)nicotinonitrile], the IC50 on IDH1 R132H was under 500 nM; in the test on HT1080 cells, 500 to 1000 nM; in the test on U87MG cells it was under 500 nM.
Turning to `C=Cc1cc(-c2cc(C#N)c(N3CCN(C(=O)CCOC)[C@H](C4CC4)C3)nc2C2CC2)ccn1` [Compound 530, (R)-2-cyclopropyl-6-(3-cyclopropyl-4-(3-methoxypropanoyl)piperazin-1-yl)-2′-vinyl-3,4′-bipyridine-5-carbonitrile], the concentration for half-maximal inhibition (IC50) on IDH1 R132H, in the test with HT1080 cells and in the test with U87MG cells was under 500 nM each time.
In the case of `C=Cc1cc(-c2cc(C#N)c(N3CCN(C(=O)C4CC4)[C@H](C4CC4)C3)nc2C2CC2)ncn1` [Compound 541, (R)-2-(4-(cyclopropanecarbonyl)-3-cyclopropylpiperazin-1-yl)-6-cyclopropyl-5-(6-vinylpyrimidin-4-yl)nicotinonitrile], the IC50 on IDH1 R132H, in the test on HT1080 cells and in the test with U87MG cells was under 500 nM in each case.
Regarding `C=Cc1cc(-c2cc(C#N)c(N3CCN(C(=O)C4CC4)[C@H](C4CC4)C3)nc2C2CC2)c2ccccc2n1` [Compound 542, (R)-2-(4-(cyclopropanecarbonyl)-3-cyclopropylpiperazin-1-yl)-6-cyclopropyl-5-(2-vinylquinolin-4-yl)nicotinonitrile], the IC50 on IDH1 R132H, with HT1080 cells and with U87MG cells was under 500 nM throughout.
Turning to `C=Cc1cc(-c2cc(C#N)c(N3CCN(C(=O)c4ccoc4)[C@H](C4CC4)C3)nc2C2CC2)ccn1` [Compound 546, (R)-2-cyclopropyl-6-(3-cyclopropyl-4-(furan-3-carbonyl)piperazin-1-yl)-2′-vinyl-3,4′-bipyridine-5-carbonitrile], the IC50 at IDH1 R132H, in the test on HT1080 cells and with U87MG cells was under 500 nM in each case.
Regarding `N#Cc1cc(-c2cccc3c(O)nccc23)c(C2CC2)nc1N1CCN(C(=O)CC(F)(F)F)[C@H](C2CC2)C1` [Compound 547, (R)-6-cyclopropyl-2-(3-cyclopropyl-4-(3,3,3-trifluoropropanoyl)piperazin-1-yl)-5-(1-hydroxyisoquinolin-5-yl)nicotinonitrile], the IC50 on IDH1 R132H, with HT1080 cells and with U87MG cells was under 500 nM each time.
Consider `C[C@@H]1CN(c2nc(C3CC3)c(-c3ccc(F)cc3)cc2C#N)CCN1C(=O)C1CC1` [Compound 550, (R)-2-(4-(cyclopropanecarbonyl)-3-methylpiperazin-1-yl)-6-cyclopropyl-5-(4-fluorophenyl)nicotinonitrile], for which the IC50 on IDH1 R132H was 500 to 1000 nM; in the test on HT1080 cells, under 500 nM; in the test on U87MG cells it was under 500 nM.
For `C=Cc1ccc2c(-c3cc(C#N)c(N4CCN(C(=O)CC(F)(F)F)[C@H](C5CC5)C4)nc3C3CC3)cccc2n1` [Compound 551, (R)-6-cyclopropyl-2-(3-cyclopropyl-4-(3,3,3-trifluoropropanoyl)piperazin-1-yl)-5-(2-vinylquinolin-5-yl)nicotinonitrile], the IC50 at IDH1 R132H, in the test with HT1080 cells and in the test with U87MG cells was under 500 nM in each case.
On to `C=Cc1cc(-c2c(C3CC3)nc(N3CCN(C(=O)CCOC)[C@H](C4CC4)C3)c(C#N)c2C)ccn1` [Compound 558, (R)-2-cyclopropyl-6-(3-cyclopropyl-4-(3-methoxypropanoyl)piperazin-1-yl)-4-methyl-2′-vinyl-3,4′-bipyridine-5-carbonitrile], for which the IC50 on IDH1 R132H, in the test with HT1080 cells and in the test with U87MG cells was under 500 nM throughout.
Take `C=Cc1cc(-c2cc(C#N)c(N3CCN(C(=O)CC(C)(C)O)[C@H](C4CC4)C3)nc2C2CC2)ccn1` [Compound 561, (R)-2-cyclopropyl-6-(3-cyclopropyl-4-(3-hydroxy-3-methylbutanoyl)piperazin-1-yl)-2′-vinyl-3,4′-bipyridine-5-carbonitrile]: the IC50 on IDH1 R132H, with HT1080 cells and in the test with U87MG cells was under 500 nM in each case.
For `C=Cc1cc(-c2cc(C#N)c(N3CCN(C(C)=O)[C@H](C4CC4)C3)nc2C2CC2)ccn1` [Compound 562, (R)-6-(4-acetyl-3-cyclopropylpiperazin-1-yl)-2-cyclopropyl-2′-vinyl-3,4′-bipyridine-5-carbonitrile], the IC50 on IDH1 R132H, in the test with HT1080 cells and with U87MG cells was under 500 nM each time.
Regarding `C=Cc1cc2c(-c3cc(C#N)c(N4CCN(C(=O)C5CC5)[C@H](C5CC5)C4)nc3C3CC3)cccc2cn1` [Compound 565, (R)-2-(4-(cyclopropanecarbonyl)-3-cyclopropylpiperazin-1-yl)-6-cyclopropyl-5-(3-vinylisoquinolin-5-yl)nicotinonitrile], the results for the IC50 at IDH1 R132H, in the test on HT1080 cells and with U87MG cells were under 500 nM, 500 to 1000 nM and 500 to 1000 nM, respectively.
On to `C=Cc1cc(-c2cc(C#N)c(N3CCN(C(=O)CC(C)O)[C@H](C4CC4)C3)nc2C2CC2)ccn1` (stereo partly drawn) [Compound 568, 2-cyclopropyl-6-((3R)-3-cyclopropyl-4-(3-hydroxybutanoyl)piperazin-1-yl)-2′-vinyl-3,4′-bipyridine-5-carbonitrile], for which the IC50 at IDH1 R132H, with HT1080 cells and in the test with U87MG cells was under 500 nM each time.
Turning to `C=Cc1cc(-c2cc(C#N)c(N3CCN(C(=O)COCC)[C@H](C)C3)nc2C2CC2)ccn1` [Compound 573, (R)-2-cyclopropyl-6-(4-(2-ethoxyacetyl)-3-methylpiperazin-1-yl)-2′-vinyl-3,4′-bipyridine-5-carbonitrile], the IC50 at IDH1 R132H, with HT1080 cells and with U87MG cells was under 500 nM in each case.
As for `C=Cc1cnc2c(-c3cc(C#N)c(N4CCN(C(=O)CCOC)[C@H](C)C4)nc3C3CC3)cccc2n1` [Compound 579, (R)-6-cyclopropyl-2-(4-(3-methoxypropanoyl)-3-methylpiperazin-1-yl)-5-(2-vinylquinoxalin-5-yl)nicotinonitrile], the IC50 at IDH1 R132H, with HT1080 cells and in the test with U87MG cells was under 500 nM in each case.
Regarding `C=Cc1cc(-c2cc(C#N)c(N3CCN(C(=O)CCOC)[C@H](C)C3)nc2C2CC2)c2ccncc2n1` [Compound 580, (R)-6-cyclopropyl-2-(4-(3-methoxypropanoyl)-3-methylpiperazin-1-yl)-5-(2-vinyl-1,7-naphthyridin-4-yl)nicotinonitrile], the IC50 at IDH1 R132H, in the test on HT1080 cells and in the test on U87MG cells was under 500 nM throughout.
`C=Cc1cc(Nc2cc(C#N)c(N3CCN(C(=O)CCO)[C@H](C)C3)nc2C2CC2)ccn1` [Compound 581, (R)-6-cyclopropyl-2-(4-(3-hydroxypropanoyl)-3-methylpiperazin-1-yl)-5-((2-vinylpyridin-4-yl)amino)nicotinonitrile]: the IC50 on IDH1 R132H, with HT1080 cells and in the test with U87MG cells was under 500 nM throughout.
With `C=Cc1cc(-c2cc(C#N)c(N3CCN(C(=O)C[C@@H](C)O)[C@H](C4CC4)C3)nc2C2CC2)ccn1` [Compound 585, 2-cyclopropyl-6-((R)-3-cyclopropyl-4-((R)-3-hydroxybutanoyl)piperazin-1-yl)-2′-vinyl-3,4′-bipyridine-5-carbonitrile], the IC50 on IDH1 R132H, with HT1080 cells and in the test with U87MG cells was under 500 nM in each case.
On to `C=Cc1cc(-c2cc(C#N)c(N3CCN(C(=O)CCO)[C@@H](C4CC4)C3)nc2C2CC2)ccn1` [Compound 587, (S)-2-cyclopropyl-6-(3-cyclopropyl-4-(3-hydroxypropanoyl)piperazin-1-yl)-2′-vinyl-[3,4′-bipyridine]-5-carbonitrile], for which the IC50 on IDH1 R132H, with HT1080 cells and in the test on U87MG cells was under 500 nM throughout.
On to `C=Cc1cc(-c2c(C3CC3)nc(N3CCN(C(=O)CCO)[C@H](C4CC4)C3)c(C#N)c2C)ccn1` [Compound 589, (R)-2-cyclopropyl-6-(3-cyclopropyl-4-(3-hydroxypropanoyl)piperazin-1-yl)-4-methyl-2′-vinyl-3,4′-bipyridine-5-carbonitrile], for which the 50% inhibitory concentration (IC50) on IDH1 R132H, in the test with HT1080 cells and with U87MG cells was under 500 nM in each case.
For the compound `C=Cc1cc(-c2cc(C#N)c(N3CCN(C(=O)COC)[C@H](C4CC4)C3)nc2C2CC2)ccn1` [Compound 590, (R)-2-cyclopropyl-6-(3-cyclopropyl-4-(2-methoxyacetyl)piperazin-1-yl)-2′-vinyl-3,4′-bipyridine-5-carbonitrile], the concentration for half-maximal inhibition (IC50) at IDH1 R132H, with HT1080 cells and in the test with U87MG cells was under 500 nM throughout.
